Laboratory results: patent publication US4672063A, “Antiallergic 5-alkyl-1-phenyl-2-piperazinoalkylpyrazolin-3-one compounds” (Kali-Chemie Pharma GmbH, priority 1984, dated 1987)

Legend:
[1] = system: passive cutaneous anaphylaxis; experiment: Inhibition of passive cutaneous anaphylaxis (PCA) in the rat, test substance p.o.; type: in vivo, rat (Sprague-Dawley); details: po, 50% reduction in dye concentration vs control, read-out: ED50 inhibiting effect, passive cutaneous anaphylaxy
Procedure: (§1) 2. Determining the inhibition of passive cutaneous anaphylaxis (PCA) and the inhibition of anaphylactoid cutaneous reactions induced by histamine and by serotonin.
For the preparation of an antiovalbumin serum, rich in IgE, which is used in the test, according to the method of Lehrer et al (J. Immunol. 116, (1976) 178-182) and Pauwels et al (Ann. Immunol. 230C., (1979), 49-58), Sprague-Dawley rats are sensitized by i.p. injection of 1 mg ovalbumin and 1 ml Bordetella pertussis suspension (vaxicoq, Merieux 3×10^10 organisms/ml). After 20 days the animals are given an injection of 10 mg ovalbumin in the same way, but without any additive. After a further 4 days, blood is removed from the animals and the blood is centrifuged. The antiserum thus obtained is stored at -20° C. and adjusted according to the method of Goose et al (Immunology 16 (1968) 749-760).
(§2) The determination of the inhibition of passive cutaneous anaphylaxis and the anaphylactoid cutaneous reactions induced by histamine and by serotonin, are carried out, as set forth below, according to the method of Martin and Baggiolini (Naunyn-Schmeiedeberg's Archives of Pharmacology 316 (1981) 186-189).
(§3) For passive sensitizing against ovalbumin, male Sprague-Dawley rates (body weight 150 to 165 g) are injected intradermally on a shaved part of the back with 0.05 ml of a 1:2.5 dilution of antiovalbumin serum, rich in IgE, in physiological sodium chloride solution.
(§4) 24 hours after the sensitizing, solutions of the test substances are administered orally to the rats. For comparison, a control group receives only the solvent.
(§5) Immediately thereafter 1.25 mg (-~8 mg/kg) ovalbumin to trigger the anaphylactic reaction, and 4 mg (-~26.4 mg/kg) of a blue dye dissolved in 0.5 ml phosphate-buffered physiological sodium chloride solution are administered i.v. to the animals.
(§6) After 30 minutes the animals are killed, the skin is removed and in the individual blue patches the quantity of dye contained therein is determined separately. According to the method of Mordelet-Danbrine et al (Therapie 29 (1974) 851-862) the dye is extracted from the individual patches in each case with 2.5 ml dimethylformamide at a temperature of 37° C. for 4 days and the quantity of dye obtained in each case in the extraction solution is determined by spectrophotometric measurement. The doses of the test substances which cause a 50% reduction in the dye concentration compared with the control group are calculated as ED50 values.

[2] = system: histamine-induced anaphylactoidal reaction; experiment: Inhibition of histamine-induced anaphylactoid cutaneous reaction in the rat, test substance p.o.; type: in vivo, rat (Sprague-Dawley); details: po, 40 μg histamine intradermally, read-out: ED50 inhibiting effect, histamine-induced anaphylactoidal reaction
Procedure: as §1, §2, §3, §4
(§7) To trigger the histamine-induced and serotonin-induced anaphylactoid reactions of the skin, the animals are injected intradermally 30 minutes later on a second shaved part of the back with a solution of 40 μg histamine in 0.05 ml physiological sodium chloride solution and on a third shaved part of the back with a solution of 1 μg serotonin in 0.05 physiological sodium chloride solution.
as §5, §6

[3] = system: serotonin induced anaphylactoidal reaction; experiment: Inhibition of serotonin-induced anaphylactoid cutaneous reaction in the rat, test substance p.o.; type: in vivo, rat (Sprague-Dawley); details: po, 1 μg serotonin intradermally, read-out: ED50 inhibiting effect, serotonin induced anaphylactoidal reaction
Procedure: as §1, §2, §3, §4, §7, §5, §6

[4] = system: peritonal mast cells of rats; experiment: In vitro inhibition of anaphylactically caused histamine release from peritonal mast cells of rats; type: cell-based, rat (Sprague-Dawley); details: Rattus norvegicus, Mast cell; ovalbumin trigger, 1 minute preincubation at 37° C.; read-out: EC50 in vitro inhibiting effect with respect to anaphylactically caused histamine release from mast cells of the rat
Procedure: 3. Determining the inhibiting effect in vitro on the release of histamine, caused anaphylactically, from peritonal mast cells of rats.
In order to obtain the peritonal mast cells, Sprague-Dawley rats are killed by inhalation of ether and immediately after cessation of breathing has occurred, 15 ml of a cold solution of 1 mg/ml human serum albumin in phosphate-buffered sodium chloride solution are injected into the abdominal cavity. The peritonal fluid is then removed and the mast cells are separated therefrom by centrifuging and are suspended in phosphate-buffered sodium chloride solution, whereafter the suspension is adjusted to a mast cell concentration of 5×10^5 per ml.
The mast cell suspension, divided up into samples each of 100 μl, is introduced into test-tubes and each sample, for passive sensitizing, is mixed with 100 μl of a 1:10 dilution of IgE-rich antiovalbumin serum in physiological sodium chloride solution (prepared according to the method described above) and is incubated for 30 minutes at a temperature of 37° C. (water bath). For the removal of unbonded IgE, the mast cells are then washed with 2 ml phosphate-buffered sodium chloride solution, centrifuged, and the supernatant fluid is discarded. Then the mast cells are incubated for 1 minute at 37° C. with 200 μl of a solution of the test substance in phosphate-buffered sodium chloride solution. A control group is only incubated with the same quantity of phosphate-buffered sodium chloride solution which is free of test substance.
After an incubation period of 3 minutes at 37° C., the reaction is stopped by rapid cooling in an ice bath. Then centrifuging takes place, the supernatant fluid is decanted and the histamine content therein is determined directly, without further extraction, spectrofluorimetrically according to the method of Shore (J. Pharmac. Exp. Ther. 127 (1959) 182-186).
For the extraction of the residual histamine still contained in the mast cells of the undecanted material, the latter is mixed with 2 ml phosphate-buffered sodium chloride solution and the suspension is heated in a boiling water bath. Then centrifuging takes place, the supernatant fluid is decanted and therein the residual histamine extracted from the mast cells is determined spectrofluorimetrically.
For each sample, the quantity of the released histamine is calculated as percentage proportion of the overall quantity of histamine (=total of released histamine and residual histamine retained in the mast cells).
The EC50 values are calculated to be those molar concentrations of the test substances in the respective test solutions which produce a 50% inhibition of the histamine release compared to the control group.

[5] = system: carrageenin edema of the paw; experiment: Inhibition of carrageenin paw edema in the rat; type: in vivo, rat (Wistar); details: po, 100 mg/kg p.o., 3 hours after irritant, read-out: % Inhibition of carageenin paw edema in the rat
Procedure: Description of the test method to determine the inhibiting effect on the carrageenin edema of the paw in the rats according to the method of Winter et al (Proc. Soc. Exp. Biol. Med. 111 (1962) 544-547).
Male Wistar rates with a body weight of approximately 120 to 140 g are used. A dose of 100 mg/kg of the test substance suspended in a volume of 0.5 ml per 100 g body weight of a 1% methyl cellulose solution Tylose®, American Hoechst Corp., Somerville, NJ) is administered per os.
Only the Tylose® solution is administered to a control group. One hour later, to initiate the inflammation, 0.1 ml of a 1% suspension of carageenin (Satiagum® E) in an isotonic solution of sodium chloride are administered as an irritant by intraplantar injection into the right rear paw. An identical volume of isotonic sodium chloride solution is injected into the left rear paw. Both before and also 3 hours after the administration of the irritant, the volume of the individual rat paws is measured plethysmometrically and the volume of swelling of the paw after administration of carrageenin is determined compared with the paw which was only treated with sodium chloride solution. The inhibition of edema formation brought about by the test substances in the treated animals is indicated in percentage compared with the animals of the untreated control group.

[6] = Acute 8-day toxicity, single i.p. application to male mice (LD50); details: in vivo, ip, mouse i.p., 8 days
Procedure: The acute 8-day toxicity is determined after a single application i.p. to male mice (body weight 18 to 22 g). The mortality is noted for 8 days. The results are calculated as LD50 values, i.e. the dose which kills 50% of the animals.

Row | Structure (SMILES) | ED50 [1] [mg/kg] | ED50 [2] [mg/kg] | ED50 [3] [mg/kg] | EC50 [4] [µM] | inhibition in vivo at 100 mg/kg [5] [%] | LD50 at 192 h [6] [mg/kg]
1 | Cc1cc(=O)n(CCCN2CCN(c3ccc(F)cc3)CC2)n1-c1ccc(Cl)cc1 [Example 62] | 5.47 | 7.04 | 3.64 | 62 | 63.9 | –
2 | Cc1cc(=O)n(CCCN2CCN(c3ccc(F)cc3)CC2)n1-c1ccc(C#N)cc1 [Example 60] | 1.86 | 3.32 | 2.49 | 200 | 62.4 | 91.5
3 | CCc1cc(=O)n(CCCN2CCN(c3ccc(F)cc3)CC2)n1-c1ccccc1 [Example 1, 5-ethyl-1-phenyl-2-{3-[4-(4-fluorophenyl)-piperazin-1-yl]-propyl}-pyrazolin-3-one] | 2.5 | 4.7 | 2.6 | 50 | 52.8 | 117
4 | CC(=O)c1ccc(-n2c(C)cc(=O)n2CCCN2CCN(c3ccc(F)cc3)CC2)cc1 [Example 59] | – | – | – | – | 45.7 | –
5 | CCc1cc(=O)n(CCCN2CCN(c3ccc(F)cc3)CC2)n1-c1ccc([N+](=O)[O-])cc1 [Example 54] | 4.45 | 5.46 | 0.52 | 120 | 45.6 | 53.3
6 | CCCc1cc(=O)n(CCCN2CCN(c3ccc(F)cc3)CC2)n1-c1ccccc1 [Example 12] | – | – | – | – | 49.5 | –
7 | Cc1cc(=O)n(CCCN2CCN(c3ccc(F)cc3)CC2)n1-c1ccc([N+](=O)[O-])cc1 [Example 39] | 5.7 | 9.7 | 2.5 | – | 42.6 | 91.5
8 | O=c1cc(C2CCCC2)n(-c2ccccc2)n1CCCN1CCN(c2ccc(F)cc2)CC1 [Example 63] | – | – | – | – | 42.2 | –
9 | Cc1cc(=O)n(CCCN2CCN(c3ccc(F)cc3)CC2)n1-c1ccccc1 [Example 8] | – | – | – | – | 56.4 | –
